Assay results: patent publication US20250034216A1, “STEREOSELECTIVE COVALENT LIGANDS FOR ONCOGENIC AND IMMUNOLOGICAL PROTEINS” (The Scripps Research Institute, priority 2021, published 2025)

How the values were obtained:
Assay in all cases: IA-DTB cysteine engagement
Type in all cases: binding
CCNE2_C109 = biological target: T1, CCNE2_C109 (Homo sapiens, UniProt O96020); conditions: 22Rv1 cells, 20 μM probe, 1 h, relative to DMSO
T1 construct: endogenous in cells; host or cells: 22Rv1
Outline: (§1)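 First, cells are exposed to electrophilic probes in situ. Next, lysates are labeled with IA-DTB (1 h, ambient temperature), reduced, alkylated and trypsin-digested. Then, IA-DTB peptides are enriched on streptavidin, TMT-labeled and analyzed, with ratios taken against DMSO channels.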

CDKN2AIP_C516 = biological target: T2, CDKN2AIP_C516 (Homo sapiens, UniProt Q9NXV6); conditions: 22Rv1 cells, 20 μM probe, 1 h, relative to DMSO
T2 construct: endogenous in cells; host or cells: 22Rv1
T2 sequence (Q9NXV6 1-580): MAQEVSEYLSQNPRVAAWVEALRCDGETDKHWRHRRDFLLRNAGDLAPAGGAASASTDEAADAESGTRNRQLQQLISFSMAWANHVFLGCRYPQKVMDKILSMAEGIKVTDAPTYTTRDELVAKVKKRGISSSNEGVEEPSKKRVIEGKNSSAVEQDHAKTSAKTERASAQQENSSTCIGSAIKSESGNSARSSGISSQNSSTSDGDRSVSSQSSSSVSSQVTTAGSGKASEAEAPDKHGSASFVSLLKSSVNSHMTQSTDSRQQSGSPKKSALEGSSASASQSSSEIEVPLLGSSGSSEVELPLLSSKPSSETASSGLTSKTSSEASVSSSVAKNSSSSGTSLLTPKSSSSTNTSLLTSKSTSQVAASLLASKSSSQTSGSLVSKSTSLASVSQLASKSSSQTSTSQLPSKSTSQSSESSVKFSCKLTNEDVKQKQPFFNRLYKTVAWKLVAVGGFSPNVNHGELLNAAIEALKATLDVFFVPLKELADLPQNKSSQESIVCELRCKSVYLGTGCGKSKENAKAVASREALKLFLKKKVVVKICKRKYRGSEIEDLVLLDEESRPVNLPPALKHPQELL
Outline: as §1

DCTN4_C258 = biological target: T3, DCTN4_C258 (Homo sapiens, UniProt Q9UJW0); conditions: 22Rv1 cells, 20 μM probe, 1 h, relative to DMSO
T3 construct: endogenous in cells; host or cells: 22Rv1
Outline: as §1

NT5DC2_C507 = biological target: T4, NT5DC2_C507 (Homo sapiens, UniProt Q9H857); conditions: 22Rv1 cells, 20 μM probe, 1 h, relative to DMSO
T4 construct: endogenous in cells; host or cells: 22Rv1
T4 sequence (Q9H857 1-520): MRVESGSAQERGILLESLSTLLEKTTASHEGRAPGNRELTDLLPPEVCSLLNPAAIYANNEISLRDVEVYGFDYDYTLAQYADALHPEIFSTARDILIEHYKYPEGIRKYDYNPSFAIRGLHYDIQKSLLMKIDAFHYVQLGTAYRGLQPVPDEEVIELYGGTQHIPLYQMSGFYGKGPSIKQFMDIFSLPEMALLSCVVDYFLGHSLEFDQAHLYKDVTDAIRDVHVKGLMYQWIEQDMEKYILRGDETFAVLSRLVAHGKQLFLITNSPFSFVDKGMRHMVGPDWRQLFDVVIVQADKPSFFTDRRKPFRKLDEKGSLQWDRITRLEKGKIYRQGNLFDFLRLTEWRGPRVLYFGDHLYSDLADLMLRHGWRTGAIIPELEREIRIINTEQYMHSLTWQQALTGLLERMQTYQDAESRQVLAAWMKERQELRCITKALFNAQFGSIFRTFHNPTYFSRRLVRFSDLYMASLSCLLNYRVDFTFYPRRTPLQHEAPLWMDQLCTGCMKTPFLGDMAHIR
Outline: as §1

REEP5_C18 = biological target: T5, REEP5_C18 (Homo sapiens, UniProt Q00765); conditions: 22Rv1 cells, relative to DMSO; for % engagement REEP5_C18: 20 μM probe, 1 h; for % engagement REEP5_18: 5 μM probe, 1 h (FIG. 5B)
T5 construct: endogenous in cells; host or cells: 22Rv1
Outline: as §1

T1 sequence (O96020 whole entry): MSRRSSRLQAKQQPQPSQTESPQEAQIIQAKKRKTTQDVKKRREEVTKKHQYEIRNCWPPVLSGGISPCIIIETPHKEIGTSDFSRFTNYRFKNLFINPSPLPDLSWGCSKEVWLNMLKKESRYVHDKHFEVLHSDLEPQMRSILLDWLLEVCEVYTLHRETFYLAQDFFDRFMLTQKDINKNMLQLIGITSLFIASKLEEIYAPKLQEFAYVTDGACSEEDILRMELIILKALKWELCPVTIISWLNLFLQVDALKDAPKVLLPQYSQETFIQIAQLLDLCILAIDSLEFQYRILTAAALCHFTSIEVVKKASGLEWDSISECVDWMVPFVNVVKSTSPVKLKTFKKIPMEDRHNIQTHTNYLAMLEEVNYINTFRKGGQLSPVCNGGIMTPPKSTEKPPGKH
T5 sequence (Q00765 whole entry): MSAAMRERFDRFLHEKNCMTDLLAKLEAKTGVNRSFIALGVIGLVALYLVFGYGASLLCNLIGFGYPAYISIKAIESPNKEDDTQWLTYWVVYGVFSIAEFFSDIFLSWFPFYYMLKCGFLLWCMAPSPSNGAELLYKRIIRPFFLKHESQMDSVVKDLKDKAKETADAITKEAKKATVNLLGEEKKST
T3 sequence (Q9UJW0 whole entry): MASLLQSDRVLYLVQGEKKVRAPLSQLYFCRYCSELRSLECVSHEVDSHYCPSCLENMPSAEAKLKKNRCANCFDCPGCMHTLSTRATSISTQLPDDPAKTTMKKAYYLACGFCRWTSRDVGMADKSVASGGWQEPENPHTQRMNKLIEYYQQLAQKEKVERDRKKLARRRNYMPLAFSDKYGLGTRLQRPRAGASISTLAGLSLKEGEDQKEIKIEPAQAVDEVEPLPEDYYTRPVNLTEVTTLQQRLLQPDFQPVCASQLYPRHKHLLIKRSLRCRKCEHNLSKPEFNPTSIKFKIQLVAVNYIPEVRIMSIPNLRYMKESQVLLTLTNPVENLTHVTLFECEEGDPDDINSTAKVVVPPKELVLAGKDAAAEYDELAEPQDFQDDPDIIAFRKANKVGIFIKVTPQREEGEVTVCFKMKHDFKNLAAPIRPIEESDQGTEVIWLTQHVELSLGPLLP

Structure (SMILES)	% engagement CCNE2_C109 (CCNE2_C109) [%]	% engagement CDKN2AIP_C516 (CDKN2AIP_C516) [%]	% engagement DCTN4_C258 (DCTN4_C258) [%]	% engagement NT5DC2_C507 (NT5DC2_C507) [%]	% engagement REEP5_C18 (REEP5_C18) [%]	% engagement REEP5_18 (REEP5_C18) [%]
C=CC(=O)N1C[C@@H](c2ccc(Br)cc2)[C@H]1C(=O)Nc1cccc2cccnc12 [MY-1A, (2S,3R)-1-acryloyl-3-(4-bromophenyl)-N-(quinolin-8-yl)azetidine-2-carboxamide]	77	66.5	27.5	83.75	91.75	–
C=CC(=O)N1C[C@H](c2ccc(Br)cc2)[C@@H]1C(=O)Nc1cccc2cccnc12 [MY-1B, (2R,3S)-1-acryloyl-3-(4-bromophenyl)-N-(quinolin-8-yl)azetidine-2-carboxamide]	76.75	24	68	67.25	97.5	79.00
C=CC(=O)N1C[C@H](c2ccc(Br)cc2)[C@H]1C(=O)Nc1cccc2cccnc12 [MY-3A, (2S,3S)-1-acryloyl-3-(4-bromophenyl)-N-(quinolin-8-yl)azetidine-2-carboxamide]	21.75	12.75	15.5	50.5	88.25	–

Now from value to compound:

% engagement CCNE2_C109 (CCNE2_C109) [%]	% engagement CDKN2AIP_C516 (CDKN2AIP_C516) [%]	% engagement DCTN4_C258 (DCTN4_C258) [%]	% engagement NT5DC2_C507 (NT5DC2_C507) [%]	% engagement REEP5_C18 (REEP5_C18) [%]	% engagement REEP5_18 (REEP5_C18) [%]	Structure (SMILES)
42.75	18.75	31.5	57.5	91.75	–	C=CC(=O)N1C[C@H](c2ccc(Br)cc2)[C@H]1C(=O)Nc1cccc2cccnc12 [MY-3B, (2S,3S)-1-acryloyl-3-(4-bromophenyl)-N-(quinolin-8-yl)azetidine-2-carboxamide]
–	–	–	–	–	22.75	CC#CC(=O)N1C[C@H](c2ccc(Br)cc2)[C@@H]1C(=O)Nc1cccc2cccnc12 [MY-45B, (2R,3S)-3-(4-bromophenyl)-1-(but-2-ynoyl)-N-(quinolin-8-yl)azetidine-2-carboxamide]
